We go through 24 compounds from patent publication EP4813993A1, “COMPOUND, PREPARATION METHOD THEREFOR, AND USE THEREOF” (Sichuan Kelun Pharmaceutical Research Institute Co., Ltd., priority 2023, dated 2025).

pIC50: −log10 of the molar value.

For the first test, the target named is T1, Nav1.8 channels (Homo sapiens, UniProt Q9Y5Y9).
T1 construct: expressed in transfected cells
T1 sequence (Q9Y5Y9 whole entry): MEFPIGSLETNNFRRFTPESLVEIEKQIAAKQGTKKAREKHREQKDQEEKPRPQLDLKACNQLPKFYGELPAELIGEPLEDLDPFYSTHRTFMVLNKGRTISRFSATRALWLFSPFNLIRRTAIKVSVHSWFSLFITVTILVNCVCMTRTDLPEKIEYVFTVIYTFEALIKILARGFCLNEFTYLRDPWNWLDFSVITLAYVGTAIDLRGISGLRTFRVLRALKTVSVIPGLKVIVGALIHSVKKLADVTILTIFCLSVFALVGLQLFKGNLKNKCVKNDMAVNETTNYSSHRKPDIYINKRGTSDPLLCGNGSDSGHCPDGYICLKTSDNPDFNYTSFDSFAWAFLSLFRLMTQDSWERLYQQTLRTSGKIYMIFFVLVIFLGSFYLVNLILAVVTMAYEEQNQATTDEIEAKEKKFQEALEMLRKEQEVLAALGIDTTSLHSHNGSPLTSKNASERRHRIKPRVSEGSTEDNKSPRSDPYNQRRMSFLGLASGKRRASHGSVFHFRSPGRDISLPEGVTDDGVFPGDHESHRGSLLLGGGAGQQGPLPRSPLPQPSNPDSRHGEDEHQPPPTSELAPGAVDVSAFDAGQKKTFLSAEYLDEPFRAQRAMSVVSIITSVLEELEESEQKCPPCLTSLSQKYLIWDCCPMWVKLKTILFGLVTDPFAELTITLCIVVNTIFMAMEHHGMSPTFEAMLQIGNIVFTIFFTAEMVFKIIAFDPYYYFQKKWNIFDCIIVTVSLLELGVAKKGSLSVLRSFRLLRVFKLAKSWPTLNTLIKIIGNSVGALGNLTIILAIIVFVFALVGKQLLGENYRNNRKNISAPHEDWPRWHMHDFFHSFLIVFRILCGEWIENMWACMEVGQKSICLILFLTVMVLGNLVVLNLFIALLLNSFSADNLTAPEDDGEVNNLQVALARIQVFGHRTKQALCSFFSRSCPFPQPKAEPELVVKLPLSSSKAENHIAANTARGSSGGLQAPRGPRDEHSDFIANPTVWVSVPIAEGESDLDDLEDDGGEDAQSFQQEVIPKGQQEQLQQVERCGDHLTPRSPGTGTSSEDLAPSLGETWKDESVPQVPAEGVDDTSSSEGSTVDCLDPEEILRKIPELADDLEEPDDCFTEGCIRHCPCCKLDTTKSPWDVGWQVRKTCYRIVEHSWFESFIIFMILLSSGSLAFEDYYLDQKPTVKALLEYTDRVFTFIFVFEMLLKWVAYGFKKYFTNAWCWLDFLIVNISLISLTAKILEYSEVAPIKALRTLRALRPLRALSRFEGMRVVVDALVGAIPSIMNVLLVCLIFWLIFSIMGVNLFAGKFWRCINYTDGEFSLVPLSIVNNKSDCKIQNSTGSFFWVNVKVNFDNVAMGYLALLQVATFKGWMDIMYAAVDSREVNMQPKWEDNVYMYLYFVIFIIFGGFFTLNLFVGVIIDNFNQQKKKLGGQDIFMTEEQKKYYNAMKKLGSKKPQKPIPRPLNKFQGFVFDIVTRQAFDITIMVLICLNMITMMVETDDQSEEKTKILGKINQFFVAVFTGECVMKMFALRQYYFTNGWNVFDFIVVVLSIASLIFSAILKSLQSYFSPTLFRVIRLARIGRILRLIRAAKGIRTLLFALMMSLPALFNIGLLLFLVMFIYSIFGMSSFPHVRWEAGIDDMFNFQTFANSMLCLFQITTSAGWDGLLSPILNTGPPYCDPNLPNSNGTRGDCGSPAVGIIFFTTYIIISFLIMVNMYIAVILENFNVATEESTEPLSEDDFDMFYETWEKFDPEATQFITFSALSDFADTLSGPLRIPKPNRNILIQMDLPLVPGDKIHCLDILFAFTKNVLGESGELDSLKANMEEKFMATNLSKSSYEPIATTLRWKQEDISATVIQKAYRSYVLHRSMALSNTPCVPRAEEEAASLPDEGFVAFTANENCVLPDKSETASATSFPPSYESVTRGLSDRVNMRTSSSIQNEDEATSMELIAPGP
Description: Manual patch-clamp, current of stably overexpressed Nav1.8 channels (resting state voltage program). The test is classed as cell-based.
Details: not given
The procedure: Experimental Example 1: Effects of test substances on current of stably overexpressed Nav1.8 channels monitored via manual patch-clamp technique
Test compounds were dissolved in dimethyl sulfoxide (DMSO).
The extracellular fluid was as follows: 140 mM NaCl, 3.5 mM KCl, 1 mM MgCl2•6H2O, 2 mM CaCl2•2H2O, 10 mM D-Glucose, 10 mM HEPES, 1.25 mM NaH2PO4•2H2O; the pH was adjusted to 7.4 with NaOH. The intracellular fluid was as follows: 50 mM CsCl, 10 mM NaCl, 10 mM HEPES, 60 mM CsF, 20 mM EGTA; the pH was adjusted to 7.2 with CsOH.
2. Experimental materials and instruments
• 1) patch-clamp amplifier: EPC 10 (HEKA) • 2) micromanipulator: MP225 (Sutter Instrument) • 3) inverted microscope: MF53 (Mshot) • 4) micropipette puller: P97 (Sutter Instrument) • 5) capillary glass tube: BF150-86-10 (Sutter Instrument)
3. Experimental procedures
• 1) After the compounds were prepared into solutions with specified concentrations, the solutions were sequentially added to the pipeline of the drug delivery system and labeled. • 2) The cell climbing coverslip was placed in the recording chamber, the appropriate cells were selected under the inverted microscope, and the position of the drug delivery tip was adjusted. • 3) A capillary glass tube was pulled into a suitable recording electrode using the micropipette puller, and then the electrode filled with the intracellular fluid was mounted in the microelectrode holder. The micromanipulator was adjusted under the inverted microscope to allow the recording electrode to contact the cell, and negative pressure was applied to the electrode to form a high-resistance seal. At this time, fast capacitance compensation was performed, and then the application of negative pressure was continued to break the cell membrane, forming a whole-cell recording mode. Finally, slow capacitance compensation was performed, and related parameters were recorded. • 4) After the cell current stabilized, administration was started. Each concentration of the drug was applied for five minutes or until the current stabilized before proceeding to monitor the next concentration. The drug solutions were administered via gravity-fed delivery, flowing through the recording chamber to act on the cells in an ascending order of concentration (from low to high). A peristaltic pump was employed for solution exchange in the recording process.
4 Test voltage program (resting state) and results
After the formation of the whole-cell seal, the cell voltage was clamped at -120 mV, followed by depolarization to 0 mV using a square-wave pulse with a duration of 50 ms to elicit Nav1.8 currents. This procedure was repeated every 20 s to monitor the maximum current induced by the square wave. After the current stabilized, the test compounds were administered. Once the response stabilized, the intensity of the current block was calculated.
(In general: In patch-clamp work, channel activity is measured electrically.)
As for `COc1c(C2CC(C)(C(F)(F)F)SC2C(=O)Nc2ccc(F)c(B(O)O)c2)ccc(F)c1F` (stereo not drawn) [Compound 19, (5-(3-(3,4-difluoro-2-methoxyphenyl)-5-methyl-5-(trifluoromethyl)tetrahydrothiophene-2-carboxamido)-2-fluorophenyl)boronic acid], the negative logarithm of the IC50 (pIC50) (commonly −log10 of the IC50, conventionally taken in molar units) is 9.48.

The test is the same for the next values; noted with them: concentration of 1 nM, read-out: Inhibition rate %.
For the compound `COc1c(C2C(C(=O)Nc3ccnc(C(N)=O)c3)SC(C)(C(F)(F)F)C2C)ccc(F)c1F` (stereo not drawn) [Compound 136, 4-(3-(3,4-difluoro-2-methoxyphenyl)-4,5-dimethyl-5-(trifluoromethyl)tetrahydrothiophene-2-carboxamido)picolinamide], the inhibition – broadly, the share of the control response that was lost under treatment – at 0.001 µM came to 61.9%. Same read-out and setting: then `COc1c(C2CC(C)(C(F)(F)F)SC2C(=O)Nc2ccnc(N)c2)ccc(F)c1F` (stereo not drawn) [Compound 175, (4-(3-(3,4-difluoro-2-methoxyphenyl)-5-methyl-5-(trifluoromethyl)tetrahydrothiophene-2-carboxamido)-2-amino)pyridine], with 87.8%.

Staying with this test, now noted: concentration of 10 nM, 0.01 µM.
Regarding `COc1c(C2CC(C)(C)SC2C(=O)Nc2ccnc(C(N)=O)c2)ccc(F)c1F` (stereo not drawn) [Compound 134-A, 4-(3-(3,4-difluoro-2-methoxyphenyl)-5,5-dimethyltetrahydrothiophene-2-carboxamido)picolinamide], the Inhibition rate (%) was found to be 87.78%.

The same test, now with this note: concentration of 10 nM, read-out: Inhibition rate %.
As for `COc1c(C2CC(C)(C(F)(F)F)SC2C(=O)Nc2cccc(B(O)O)c2)ccc(F)c1F` (stereo not drawn) [Compound 9, (3-(3-(3,4-difluoro-2-methoxyphenyl)-5-methyl-5-(trifluoromethyl)tetrahydrothiophene-2-carboxamido)phenyl)boronic acid], the inhibition at 0.01 µM was determined as 84.9%.

In the case of `[2H][C@@]1(C(=O)Nc2cccc(B(O)O)c2)S[C@@](C)(C(F)(F)F)C[C@H]1c1ccc(F)c(F)c1OC` [Compound 10-A], the inhibition at 0.01 µM is 87.5%.

Take `[2H]C1(C(=O)Nc2ccc(F)c(B(O)O)c2)SC(C)(C(F)(F)F)CC1c1ccc(F)c(F)c1OC` (stereo not drawn) [Compound 20-A, (5-(3-(3,4-difluoro-2-methoxyphenyl)-5-methyl-5-(trifluoromethyl)tetrahydrothiophene-2-carboxamido-2-d)-2-fluorophenyl)boronic acid]: the inhibition at 0.01 µM was found to be 87.9%. Still for that read-out and setting: then `COc1c(C2CC(C)(C(F)(F)F)SC2C(=O)Nc2ccc3c(c2)B(O)OC3)ccc(F)c1F` (stereo not drawn) [Compound 31, 3-(3,4-difluoro-2-methoxyphenyl)-N-(1-hydroxy-1,3-dihydrobenzo[c][1,2]oxaborol-6-yl)-5-methyl-5-(trifluoromethyl)tetrahydrothiophene-2-carboxamide], with 65%; and `COc1c([C@@H]2C[C@](C)(C(F)(F)F)S[C@H]2C(=O)Nc2ccc3c(c2)B(O)OC3)ccc(F)c1F` [Compound 31-A, (2R,3S,5R)-3-(3,4-difluoro-2-methoxyphenyl)-N-(1-hydroxy-1,3-dihydrobenzo[c][1,2]oxaborol-6-yl)-5-methyl-5-(trifluoromethyl)tetrahydrothiophene-2-carboxamide], with 84.7%; and `COc1c(C2CC(C)(C(F)(F)F)SC2C(=O)Nc2csc(B(O)O)c2)ccc(F)c1F` (stereo not drawn) [Compound 48, (4-(3-(3,4-difluoro-2-methoxyphenyl)-5-methyl-5-(trifluoromethyl)tetrahydrothiophene-2-carboxamido)thiophen-2-yl)boronic acid], with 79.8%. In the case of `COc1c([C@@H]2C[C@](C)(C(F)(F)F)S[C@H]2C(=O)Nc2csc(B(O)O)c2)ccc(F)c1F` [Compound 48-A, (4-((2R,3S,5R)-3-(3,4-difluoro-2-methoxyphenyl)-5-methyl-5-(trifluoromethyl)tetrahydrothiophene-2-carboxamido)thiophen-2-yl)boronic acid], the inhibition at 0.01 µM is 91.5%. On the same count and under the same terms, then `[2H][C@@]1(C(=O)Nc2csc(B(O)O)c2)S[C@@](C)(C(F)(F)F)C[C@H]1c1ccc(F)c(F)c1OC` [Compound 50-A, (4-((2R,3S,5R)-3-(3,4-difluoro-2-methoxyphenyl)-5-methyl-5-(trifluoromethyl)tetrahydrothiophene-2-carboxamido-2-d)thiophen-2-yl)boronic acid], with 80.9%; and `COc1c(C2CC(C)(C(F)(F)F)SC2C(=O)Nc2ccc(B(O)O)cc2)ccc(F)c1F` (stereo not drawn) [Compound 82, (4-(3-(3,4-difluoro-2-methoxyphenyl)-5-methyl-5-(trifluoromethyl)tetrahydrothiophene-2-carboxamido)phenyl)boronic acid], with 81.1%; and `COc1c(C2CC(C)(C(F)(F)F)SC2C(=O)Nc2ccc(B(O)O)c(F)c2)ccc(F)c1F` (stereo not drawn) [Compound 88, (4-(3-(3,4-difluoro-2-methoxyphenyl)-5-methyl-5-(trifluoromethyl)tetrahydrothiophene-2-carboxamido)-2-fluorophenyl)boronic acid], with 95.6%. Consider `COc1c([C@@H]2C[C@](C)(C(F)(F)F)S[C@H]2C(=O)Nc2ccc(B(O)O)c(F)c2)ccc(F)c1F` [Compound 88-A, (4-((2R,3S,5R)-3-(3,4-difluoro-2-methoxyphenyl)-5-methyl-5-(trifluoromethyl)tetrahydrothiophene-2-carboxamido)-2-fluorophenyl)boronic acid], for which the inhibition at 0.01 µM amounted to 92.7%.

As for `COc1c(C2CC(C)(C(F)(F)F)SC2C(=O)Nc2ccc(B(O)O)c(Br)c2)ccc(F)c1F` (stereo not drawn) [Compound 93, (2-bromo-4-(3-(3,4-difluoro-2-methoxyphenyl)-5-methyl-5-(trifluoromethyl)tetrahydrothiophene-2-carboxamido)phenyl)boronic acid], the inhibition at 0.01 µM was 89.7%. Still for that read-out and setting: with `COC(=O)c1cc(NC(=O)[C@@H]2S[C@@](C)(C(F)(F)F)C[C@H]2c2ccc(F)c(F)c2OC)ccc1B(O)O` [Compound 101-A, (4-((2R,3S,5R)-3-(3,4-difluoro-2-methoxyphenyl)-5-methyl-5-(trifluoromethyl)tetrahydrothiophene-2-carboxamido)-2-(methoxycarbonyl)phenyl)boronic acid] the figure was 77.9%.

`COc1c(C2CC(C)(C)SC2C(=O)Nc2ccnc(C(N)=O)c2)ccc(F)c1F` (stereo not drawn) [Compound 134, 4-(3-(3,4-difluoro-2-methoxyphenyl)-5,5-dimethyltetrahydrothiophene-2-carboxamido)picolinamide]: the inhibition at 0.01 µM was 76.5%. The same measure, in the same setting: with `[2H][C@@]1(C(=O)Nc2ccnc(C(N)=O)c2)S[C@@](C)(C(F)(F)F)C[C@H]1c1ccc(F)c(F)c1OC` [Compound 140-A, 4-((2R,3S,5R)-3-(3,4-difluoro-2-methoxyphenyl)-5-methyl-5-(trifluoromethyl)tetrahydrothiophene-2-carboxamido-2-d)picolinamide] the figure was 96.2%. Same read-out and setting: then `COc1c([C@@H]2C[C@](C)(C(F)(F)F)S[C@H]2C(=O)Nc2ccc(F)c(C(N)=O)c2)ccc(F)c1F` [Compound 146-A, (2R,3S,5R)-N-(3-carbamoyl-4-fluorophenyl)-3-(3,4-difluoro-2-methoxyphenyl)-5-methyl-5-(trifluoromethyl)tetrahydrothiophene-2-carboxamide], with 98.3%; and `COc1c(C2CC(C)(C(F)(F)F)SC2C(=O)Nc2cc[nH]c(=O)c2)ccc(F)c1F` (stereo not drawn) [Compound 170, 3-(3,4-difluoro-2-methoxyphenyl)-5-methyl-N-(2-oxo-1,2-dihydropyridin-4-yl)-5-(trifluoromethyl)tetrahydrothiophene-2-carboxamide], with 97.9%; and `COc1c(C2CC(C)(C(F)(F)F)SC2C(=O)Nc2ccn(C)c(=O)c2)ccc(F)c1F` (stereo not drawn) [Compound 172, 3-(3,4-difluoro-2-methoxyphenyl)-5-methyl-N-(1-methyl-2-oxo-1,2-dihydropyridin-4-yl)-5-(trifluoromethyl)tetrahydrothiophene-2-carboxamide], with 86.5%. On the same count and under the same terms, with `COc1c(C2CC(C)(C(F)(F)F)SC2C(=O)Nc2ccc(=O)n(C)c2)ccc(F)c1F` (stereo not drawn) [Compound 178, 3-(3,4-difluoro-2-methoxyphenyl)-5-methyl-N-(1-methyl-6-oxo-1,6-dihydropyridin-3-yl)-5-(trifluoromethyl)tetrahydrothiophene-2-carboxamide] the figure was 86%. As for `COc1c([C@@H]2C[C@](C)(C(F)(F)F)S[C@H]2C(=O)Nc2ccc(=O)n(C)c2)ccc(F)c1F` [Compound 178-A, (2R,3S,5R)-3-(3,4-difluoro-2-methoxyphenyl)-5-methyl-N-(1-methyl-6-oxo-1,6-dihydropyridin-3-yl)-5-(trifluoromethyl)tetrahydrothiophene-2-carboxamide], the inhibition at 0.01 µM was 90.2%.
